Results on 73 compounds are retold here after PubChem BioAssay AID1996.

As a reminder, the kinetic solubility is the concentration staying in solution when a stock, usually in DMSO, is diluted into the medium.

Each structure is given as a SMILES string. Values after ≈ are worked out from the molar mass of the structure shown.

For this data set the following is noted: buffer; pH 7.4; 200.0 µM.
`NS(=O)(=O)c1ccc(CCNS(=O)(=O)c2ccc(Cl)s2)cc1` registered a kinetic solubility of more than 57.1 µg/mL.
In the case of `O=C(C1CCCCC1)N1CCC(O)(c2ccc(Cl)cc2)CC1`, the kinetic solubility is more than 48.3 µg/mL.
`Cl.Nc1cc(Cl)ccc1N1CCCCCC1` yielded a solubility (kinetic) of 12.4 µg/mL.
In turn, `COc1ccccc1C(=O)OCc1cc(=O)n2ccsc2n1` gave a kinetic solubility of more than 47.4 µg/mL.
Compound `CCOc1ccccc1C(=O)NC(C)CCc1ccccc1` (stereo not drawn) registered a kinetic solubility of 22.2 µg/mL (≈ 74.6 µM).
The compound `O=C(Cc1ccccc1)N1CCC(c2ccccc2)C1` (stereo not drawn) displayed a solubility (kinetic) of 38.6 µg/mL (≈ 145 µM).
Turning to `CCN(CC)C(=O)CN1C(=O)/C(=C/c2ccccc2)SC1=S`, the solubility (kinetic) was determined as 2.5 µg/mL (≈ 7.47 µM).
For the compound `CN1CCC2(CC1)C(C#N)=C(N)NC(S)=C2C#N`, the kinetic solubility is more than 39.2 µg/mL.
The compound `O=C(NC1CCCC1)C1CCN(C(=O)c2ccccc2Cl)CC1` registered a kinetic solubility of more than 50.2 µg/mL.
The value for `NC(=O)CN1CCCC1c1ccc2c(c1)OCCO2` (stereo not drawn) was more than 39.3 µg/mL.
`Cc1cccc(/C(N)=N/OC(=O)c2cccc3ccccc23)c1` displayed a kinetic solubility of 1.1 µg/mL (≈ 3.61 µM).
Consider `CCOC(=O)c1ccc(NC(=O)CN2C(=O)CN(C(C)=O)C2=S)cc1`, for which the kinetic solubility was 51.8 µg/mL (≈ 143 µM).
On to `O=C(O)c1ccccc1OCCN1CCCC1=O`, for which the kinetic solubility was 36.5 µg/mL (≈ 146 µM).
In turn, `Cc1cc(OCC(=O)N(C(C)C)C(C)C)ccc1Cl` gave a kinetic solubility of 28.8 µg/mL (≈ 101 µM).
The same measure for `Cc1nn(C)cc1S(=O)(=O)Nc1ccc(C(F)(F)F)cc1`: more than 47.9 µg/mL.
Turning to `O=C(NCCc1ccc(Cl)cc1)c1ccc(=O)[nH]c1`, the solubility (kinetic) came out at 38.1 µg/mL (≈ 138 µM).
Consider `Cc1ccc(/C=C/C(=O)NCCc2ccccc2)o1`, for which the solubility (kinetic) was 33.9 µg/mL (≈ 133 µM).
For the compound `CC(C)n1cnc2c(oc3ccccc32)c1=O`, the kinetic solubility is 7 µg/mL (≈ 30.7 µM).
For the compound `O=C(CN1CCCCCC1)Nc1ccc([N+](=O)[O-])cc1Br`, the solubility (kinetic) amounted to 3 µg/mL (≈ 8.42 µM).
Compound `COc1ccc(NC(=O)NCCc2ccc(Cl)cc2)cc1OC` returned a kinetic solubility of less than 0.4 µg/mL.
For `CCN(CC)CCCNc1cc(C)nc2cc(-c3cccs3)nn12`, the solubility (kinetic) was more than 51.5 µg/mL.
Compound `COc1ccccc1N1CCN(C(=S)Nc2ccc(F)cc2)CC1` showed a solubility (kinetic) of 4 µg/mL (≈ 11.6 µM).
As for `O=C(Oc1ccc(C(=S)N2CCOCC2)cc1)c1ccccc1[N+](=O)[O-]`, the solubility (kinetic) is 16.8 µg/mL (≈ 45.1 µM).
On to `O=C(C(c1ccccc1)c1ccccc1)N1CC[C@@]2(O)CCCC[C@H]2C1`, for which the kinetic solubility was more than 52.4 µg/mL.
With `CCOC(=O)C1=C(C)NC(C)=C(C(=O)OCC)C1C(=O)OCC(=O)NC1CCCCC1`, the solubility (kinetic) was more than 65.5 µg/mL.
`CCc1ccc(N2C(=O)C3C(C2=O)N2CCCN2C3c2ccccc2)cc1` (stereo not drawn): the kinetic solubility is more than 54.2 µg/mL.
`Br.CC(C)CC(N)C(=O)OCc1ccc([N+](=O)[O-])cc1` (stereo not drawn): the kinetic solubility is more than 52.1 µg/mL.
In turn, `N#CCn1c(CN2CCCC2)nc2ccccc2c1=O` displayed a solubility (kinetic) of 38.6 µg/mL (≈ 144 µM).
As to `CC1CCCCC1NC(=O)CSc1nc2ccccc2[nH]1` (stereo not drawn), the kinetic solubility was 37.5 µg/mL (≈ 124 µM).
For the compound `Cc1nc2ccccc2cc1C(=O)N(C)Cc1ccccc1`, the kinetic solubility turned out to be 43 µg/mL (≈ 148 µM).
In the case of `COc1ccccc1N1CC(C)(C)C(=O)N(C(=O)c2ccc(C)cc2)C1=S`, the solubility (kinetic) is 2.1 µg/mL (≈ 5.49 µM).
Compound `Cc1cc(C)n(/C(=C\N(C)C)C(=O)c2cccc([N+](=O)[O-])c2)n1` yielded a solubility (kinetic) of more than 47.2 µg/mL.
The same measure for `O=C(COC(=O)COc1ccc(Cl)cc1)NCc1ccc2c(c1)OCO2`: 2.3 µg/mL (≈ 6.09 µM).
In turn, `Cc1ccccc1NC(=O)C(C)N1C(=O)c2ccccc2C1=O` (stereo not drawn) returned a kinetic solubility of more than 46.3 µg/mL.
The same measure for `COc1ccc(C2C(C#N)=C(N)OC3=C2C(=O)CCC3)cc1OC` (stereo not drawn): more than 49 µg/mL; for `O=C(NC(=S)NCC1CCCO1)c1ccco1` (stereo not drawn): 37.6 µg/mL (≈ 148 µM).
In the case of `CCCC(=O)N1CCC(CCC(=O)NC2CC2)CC1`, the solubility (kinetic) was more than 40 µg/mL.
The compound `CC1CC1C(=O)OCC(=O)Nc1cc(S(=O)(=O)N2CCCCC2)ccc1Cl` (stereo not drawn) showed a solubility (kinetic) of 31.1 µg/mL (≈ 75 µM).
In the case of `Cn1c(=O)c2c(ncn2CCOc2ccc(F)cc2)n(C)c1=O`, the kinetic solubility was 13.9 µg/mL (≈ 43.7 µM).
For `O=C(c1ccc(Br)o1)N1CC=C(c2ccccc2)CC1`, the solubility (kinetic) came to 33 µg/mL (≈ 99.3 µM).
`CC(C)c1ccc(N=Cc2c(O)n(C3CC3)c(=S)[nH]c2=O)cc1` came in with a kinetic solubility of 0.5 µg/mL (≈ 1.52 µM).
In turn, `CCN(CC(=O)NCCC1=CCCCC1)S(=O)(=O)c1ccccc1` yielded a kinetic solubility of more than 52.6 µg/mL.
As to `COc1cc2ncnc(NCc3ccco3)c2cc1OC`, the kinetic solubility was found to be 38.9 µg/mL (≈ 136 µM).
`CC(C)Oc1ccc(C(=O)NC2=NCCS2)cc1` displayed a kinetic solubility of 23.1 µg/mL (≈ 87.4 µM).
`CCCOC(=O)C1=C(C)NC(=O)NC1c1ccc(Br)s1` (stereo not drawn) came in with a kinetic solubility of 3.1 µg/mL (≈ 8.63 µM).
For `Clc1ccccc1C1CC(c2ccccc2)=Nc2ccccc2N1` (stereo not drawn), the kinetic solubility is 1.2 µg/mL (≈ 3.61 µM).
`O=C(COC(=O)c1ccc(F)cc1)Nc1ccc(Cl)cn1` gave a solubility (kinetic) of 0.8 µg/mL (≈ 2.59 µM).
As for `O=C(N/N=C/c1cccc2ccccc12)c1cccnc1`, the kinetic solubility is more than 41.3 µg/mL.
With `O=c1sc2ccccc2c(N2CCOCC2)c1[N+](=O)[O-]`, the kinetic solubility amounted to 12.8 µg/mL (≈ 43.8 µM).
The compound `CCOc1ccc(S(=O)(=O)N2CN(c3cccc(C(C)=O)c3)c3nc4ccccc4nc32)cc1` came in with a solubility (kinetic) of 3.1 µg/mL (≈ 6.53 µM).
As for `CCN(Cc1ccccc1)C(=O)CC(=O)N(CC)Cc1ccccc1`, the solubility (kinetic) was more than 50.8 µg/mL.
For the compound `O=Cc1cccn1-c1nccc(-c2ccco2)n1`, the kinetic solubility was determined as 24.7 µg/mL (≈ 103 µM).
Consider `CCC(C)NC(=O)c1ccc(CSCc2ccccc2Cl)o1` (stereo not drawn), for which the solubility (kinetic) came to 30.7 µg/mL (≈ 90.9 µM).
Take `CC(C)c1nnc(NC(=O)CCC(=O)NC2CC2)s1`: the kinetic solubility was more than 42.4 µg/mL.
`O=C(NC1CCSc2ccccc21)c1c(F)cccc1Cl` (stereo not drawn) came in with a kinetic solubility of 7.2 µg/mL (≈ 22.4 µM).
`NC(=O)C1CCN(C(=O)COc2ccc3c(c2)oc(=O)c2ccccc23)CC1`: the kinetic solubility worked out at 10.8 µg/mL (≈ 28.4 µM).
Consider `COc1cccc(/C=C/C(=O)OCC(=O)Nc2ccc(Cl)cn2)c1`, for which the kinetic solubility is less than 0.4 µg/mL.
Compound `O=C(Nc1ccccc1N1CCOCC1)c1ccc2ccccc2c1` showed a kinetic solubility of 0.8 µg/mL (≈ 2.41 µM).
The compound `O=C(NC1CCS(=O)(=O)C1)c1ccc(Br)s1` (stereo not drawn) showed a kinetic solubility of more than 48.6 µg/mL.
In the case of `O=C(CCNS(=O)(=O)c1ccccc1)N1CCCCCC1`, the kinetic solubility is more than 46.6 µg/mL.
As for `CC(=O)N1CCN(C(=O)c2ccc3c(c2)OCO3)CC1`, the solubility (kinetic) is more than 41.4 µg/mL.
The same measure for `Cc1ccc(S(=O)(=O)NC2CCCC2)cc1C(N)=O`: more than 42.4 µg/mL; for `CC(=O)Nc1ccc(OCC(=O)NCCc2ccccc2)cc1`: more than 46.9 µg/mL.
As for `CN1C[C@H](C(=O)N[C@]2(C)O[C@@]3(O)[C@@H]4CCCN4C(=O)[C@H](Cc4ccccc4)N3C2=O)CC2c3cccc4[nH]cc(c34)C[C@H]21.CS(=O)(=O)O` (stereo partly drawn), the solubility (kinetic) turned out to be 62.9 µg/mL.
For the compound `O=C(NCCc1cccc(Cl)c1)c1ccc2c(c1)OCO2`, the solubility (kinetic) is 5.8 µg/mL (≈ 19.1 µM).
Turning to `COc1ccccc1CN(C)C(=O)COC(=O)c1ccc(Cl)nc1`, the solubility (kinetic) was more than 52.3 µg/mL.
Take `CC(C)Oc1ccc(N2CC(C(=O)NC3=NCCS3)CC2=O)cc1` (stereo not drawn): the solubility (kinetic) was more than 52.1 µg/mL.
The value for `Clc1nc(-c2ccccc2)c2ccccc2n1` was 17.6 µg/mL (≈ 73.1 µM).
The same measure for `O=C(COc1ccccc1)N1CCN=C1SCc1ccccc1`: 14.3 µg/mL (≈ 43.8 µM).
Compound `COc1ccc(CCC(=O)OCc2csc(CC(=O)Nc3ccc(C)cc3)n2)cc1OC` showed a kinetic solubility of 9.9 µg/mL (≈ 21.8 µM).
The compound `Cc1cnc(C(=O)OCC(=O)N2CCC(C)CC2)cn1` came in with a solubility (kinetic) of more than 41.6 µg/mL.
The same measure for `COc1ccc(/C=C/C(=O)OC(C)CN2CCCCC2)cc1.Cl` (stereo not drawn): 49.4 µg/mL; for `Cc1ccc(CNC(=O)COC(=O)c2ccc(S(=O)(=O)N3CCOCC3)cc2)cc1`: 6.5 µg/mL (≈ 15 µM).
